In ChEMBL document CHEMBL1201862, “PubChem BioAssay data set” (2004):
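The compound was tested at five concentrations on cells cultured in 96-well plates, with a 48-hour exposure period. GI50 is the concentration that inhibits growth by half.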 Calls of active or inactive are those of the source. Rule as the data show it: active = GI50 up to about 1.1 µM and inactive = higher.

Legend:
Test in all cases: growth of human tumour cells (NCI), 48 h
[1] = tested on: 786-0
[2] = tested on: CAKI-1
[3] = tested on: COLO 205
[4] = tested on: EKVX
[5] = tested on: HL-60
[6] = tested on: MDA-MB-435
[7] = tested on: NCI-H23
[8] = tested on: NCI-H522
[9] = tested on: OVCAR-3
[10] = tested on: PC-3
[11] = tested on: RPMI-8226
[12] = tested on: RXF 393
[13] = tested on: SF-268
[14] = tested on: SF-539
[15] = tested on: SK-MEL-28
[16] = tested on: SK-MEL-2
[17] = tested on: T47D
[18] = tested on: UACC-257
[19] = tested on: M19-MEL
[20] = tested on: SNB-78

Compound | GI50 [1] | GI50 [2] | GI50 [3] | GI50 [4] | GI50 [5] | GI50 [6] | GI50 [7] | GI50 [8] | GI50 [9] | GI50 [10] | GI50 [11] | GI50 [12] | GI50 [13] | GI50 [14] | GI50 [15] | GI50 [16] | GI50 [17] | GI50 [18] | GI50 [19] | GI50 [20]
Nc1cccc(/C=C/C(=O)N2CCN(CCOC(c3ccccc3)c3ccccc3)CC2)c1 | 16.7 µM (inactive) | 18.6 µM (inactive) | 12.7 µM (inactive) | 18.7 µM (inactive) | 11.2 µM (inactive) | 16.3 µM (inactive) | 18.5 µM (inactive) | 15 µM (inactive) | 16.6 µM (inactive) | 14.7 µM (inactive) | 10.5 µM (inactive) | 15.3 µM (inactive) | 17.4 µM (inactive) | 17.3 µM (inactive) | 15 µM (inactive) | 16.2 µM (inactive) | 13.1 µM (inactive) | 17.7 µM (inactive) | – | –
CCOC(=O)N1N=C(/C(C)=N/OC)C(C)[S+]1[O-] (stereo unspecified) | > 100 µM (inactive) | > 100 µM (inactive) | > 100 µM (inactive) | > 100 µM (inactive) | > 100 µM (inactive) | > 100 µM (inactive) | > 100 µM (inactive) | > 100 µM (inactive) | > 100 µM (inactive) | > 100 µM (inactive) | > 100 µM (inactive) | > 100 µM (inactive) | > 100 µM (inactive) | > 100 µM (inactive) | > 100 µM (inactive) | > 100 µM (inactive) | > 100 µM (inactive) | > 100 µM (inactive) | – | –
CC(=O)Nc1ccc2c(c1)C(=O)c1cccc(F)c1-2 | 71.6 µM (inactive) | 41.1 µM (inactive) | 53 µM (inactive) | > 100 µM (inactive) | > 100 µM (inactive) | > 100 µM (inactive) | 43.9 µM (inactive) | 36.5 µM (inactive) | 68.2 µM (inactive) | 45.7 µM (inactive) | 38.8 µM (inactive) | 23.6 µM (inactive) | 48.1 µM (inactive) | 0.0234 µM (active) | > 100 µM (inactive) | > 100 µM (inactive) | 24.9 µM (inactive) | 97.5 µM (inactive) | – | –
O=C1C=CC(=O)C2C1Cc1ccccc1C2c1ccccc1 (stereo unspecified) | 38.5 µM (inactive) | 59 µM (inactive) | 19.5 µM (inactive) | 31.1 µM (inactive) | 23 µM (inactive) | – | 62.1 µM (inactive) | 20.9 µM (inactive) | 29.6 µM (inactive) | – | 22.3 µM (inactive) | – | 53.1 µM (inactive) | 30.5 µM (inactive) | 97.1 µM (inactive) | 27.8 µM (inactive) | – | 28.1 µM (inactive) | 30.1 µM (inactive) | –
Cc1ccc([N+]2=NC(c3ccc([N+](=O)[O-])cc3)=NN(c3ccccc3)C2)cc1 | > 100 µM (inactive) | – | > 100 µM (inactive) | 43.7 µM (inactive) | 61.7 µM (inactive) | – | 38.4 µM (inactive) | 16.4 µM (inactive) | > 100 µM (inactive) | – | 57.4 µM (inactive) | 51.9 µM (inactive) | > 100 µM (inactive) | – | > 100 µM (inactive) | – | – | 47.1 µM (inactive) | > 100 µM (inactive) | 32.5 µM (inactive)
CCN(CC)CCOC(=O)/C(=C/c1ccc(OC)cc1)c1cc(OC)c(OC)c(OC)c1 | 7.64 µM (inactive) | 4.42 µM (inactive) | 5.75 µM (inactive) | 31.5 µM (inactive) | 3.3 µM (inactive) | – | – | 2.75 µM (inactive) | 4.95 µM (inactive) | – | 16 µM (inactive) | 2.15 µM (inactive) | 5.45 µM (inactive) | 3.28 µM (inactive) | 6.08 µM (inactive) | – | – | 5.46 µM (inactive) | 7.26 µM (inactive) | 9.98 µM (inactive)
CC(=O)Nc1ccc2c(c1)C(=O)c1ccccc1-2 | > 100 µM (inactive) | – | > 100 µM (inactive) | > 100 µM (inactive) | > 100 µM (inactive) | – | > 100 µM (inactive) | > 100 µM (inactive) | > 100 µM (inactive) | – | > 100 µM (inactive) | > 100 µM (inactive) | > 100 µM (inactive) | > 100 µM (inactive) | > 100 µM (inactive) | – | – | > 100 µM (inactive) | > 100 µM (inactive) | > 100 µM (inactive)
Cn1cc(NC(=O)c2cc(NC(=O)CNC(=N)N)cn2C)cc1C(=O)NCCC(=N)N [NETROPSIN CHLORIDE] | > 100 µM (inactive) | > 100 µM (inactive) | > 100 µM (inactive) | > 100 µM (inactive) | > 100 µM (inactive) | > 100 µM (inactive) | > 100 µM (inactive) | > 100 µM (inactive) | > 100 µM (inactive) | > 100 µM (inactive) | > 100 µM (inactive) | > 100 µM (inactive) | > 100 µM (inactive) | > 100 µM (inactive) | > 100 µM (inactive) | > 100 µM (inactive) | > 100 µM (inactive) | > 100 µM (inactive) | – | –
